Measured values reported in patent publication US10167280B2, “Substituted oxopyridine derivatives” (BAYER PHARMA AKTIENGESELLSCHAFT, priority 2014, dated 2019).

Assays:
[1] = molecular target: human factor XIa (Homo sapiens (Human), UniProt P03951); test: Measurement of FXIa inhibition (fluorogenic peptide substrate Boc-Glu(OBzl)-Ala-Arg-AMC); type: biochemical; conditions: Table A, 30 min at 22° C., fluorescence
Method: (§1) The factor XIa inhibition of the substances according to the invention is determined using a biochemical test system which utilizes the reaction of a peptidic factor XIa substrate to determine the enzymatic activity of human factor XIa. Here, factor XIa cleaves from the peptic factor XIa substrate the C-terminal aminomethylcoumarin (AMC), the fluorescence of which is measured. The determinations are carried out in microtitre plates.
1 μl of the diluted substance solutions is placed into each of the wells of white microtitre plates from Greiner (384 wells). […] After […] of incubation, the enzyme reaction is started by addition of 20 μl of the factor XIa substrate Boc-Glu(OBzl)-Ala-Arg-AMC dissolved in assay buffer (10 μM in assay buffer) from Bachem, the mixture is incubated at room temperature (22° C.) for 30 min and fluorescence is then measured (excitation: 360 nm, emission: 460 nm). The measured emissions of the test batches with test substance are compared to those of control batches without test substance (only dimethyl sulphoxide instead of test substance in dimethyl sulphoxide), and IC50 values are calculated from the concentration/activity relationships.

[2] = molecular target: human plasma kallikrein (Homo sapiens (Human), UniProt P03952); test: Determination of the plasma kallikrein activity (fluorogenic peptide substrate H-Pro-Phe-Arg-AMC); type: biochemical; conditions: Table B; plasma kallikrein inhibition, 30 min at 22° C., fluorescence
Method: as §1, with “To determine the plasma kallikrein” for “The factor XIa”, “invention,” for “invention is determined using”, “system is used” for “system”, “plasma kallikrein” for “factor XIa”, “plasma kallikrein.” for “factor XIa.”
1 μl of the diluted substance solutions is placed into each of the wells of white microtitre plates from Greiner (384 wells). 20 μl of assay buffer (50 mM Tris/HCl pH 7.4; 100 mM sodium chloride solution; 5 mM of calcium chloride solution; 0.1% of bovine serum albumin) and 20 μl of plasma kallikrein from Kordia (0.6 nM in assay buffer) are then added successively. After 15 min of incubation, the enzyme reaction is started by addition of 20 μl of the substrate H-Pro-Phe-Arg-AMC dissolved in assay buffer (10 μM in assay buffer) from Bachem, the mixture is incubated at room temperature (22° C.) for 30 min and fluorescence is then measured (excitation: 360 nm, emission: 460 nm). The measured emissions of the test batches with test substance are compared to those of control batches without test substance (only dimethyl sulphoxide instead of test substance in dimethyl sulphoxide), and IC50 values are calculated from the concentration/activity relationships.

Sequence of human factor XIa (P03951 388-625): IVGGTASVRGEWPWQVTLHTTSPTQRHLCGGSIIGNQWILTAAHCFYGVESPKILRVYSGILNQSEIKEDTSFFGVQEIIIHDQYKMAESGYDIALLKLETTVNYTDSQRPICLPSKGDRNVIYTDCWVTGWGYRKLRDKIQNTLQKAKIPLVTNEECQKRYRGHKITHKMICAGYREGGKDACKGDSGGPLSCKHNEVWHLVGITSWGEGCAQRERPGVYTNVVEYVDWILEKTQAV
Sequence of human factor XIa (P03951 19-387 partner): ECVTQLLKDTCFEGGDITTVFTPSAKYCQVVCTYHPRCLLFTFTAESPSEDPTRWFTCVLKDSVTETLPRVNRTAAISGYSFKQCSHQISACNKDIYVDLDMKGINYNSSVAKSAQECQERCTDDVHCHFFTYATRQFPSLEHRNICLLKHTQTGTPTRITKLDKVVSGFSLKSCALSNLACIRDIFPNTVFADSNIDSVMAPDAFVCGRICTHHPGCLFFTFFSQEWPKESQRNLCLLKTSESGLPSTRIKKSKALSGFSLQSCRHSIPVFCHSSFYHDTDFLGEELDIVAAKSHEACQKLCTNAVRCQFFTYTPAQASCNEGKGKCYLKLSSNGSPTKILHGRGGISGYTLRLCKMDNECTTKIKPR
Sequence of human plasma kallikrein (P03952 391-638): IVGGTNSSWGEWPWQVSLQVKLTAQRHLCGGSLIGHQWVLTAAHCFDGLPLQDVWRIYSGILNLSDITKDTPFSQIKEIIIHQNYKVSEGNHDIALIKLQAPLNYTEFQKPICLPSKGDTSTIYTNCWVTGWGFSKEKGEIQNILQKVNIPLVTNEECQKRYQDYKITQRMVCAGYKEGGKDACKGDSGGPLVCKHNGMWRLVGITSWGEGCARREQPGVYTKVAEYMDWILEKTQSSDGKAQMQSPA
Sequence of human plasma kallikrein (P03952 20-390 partner): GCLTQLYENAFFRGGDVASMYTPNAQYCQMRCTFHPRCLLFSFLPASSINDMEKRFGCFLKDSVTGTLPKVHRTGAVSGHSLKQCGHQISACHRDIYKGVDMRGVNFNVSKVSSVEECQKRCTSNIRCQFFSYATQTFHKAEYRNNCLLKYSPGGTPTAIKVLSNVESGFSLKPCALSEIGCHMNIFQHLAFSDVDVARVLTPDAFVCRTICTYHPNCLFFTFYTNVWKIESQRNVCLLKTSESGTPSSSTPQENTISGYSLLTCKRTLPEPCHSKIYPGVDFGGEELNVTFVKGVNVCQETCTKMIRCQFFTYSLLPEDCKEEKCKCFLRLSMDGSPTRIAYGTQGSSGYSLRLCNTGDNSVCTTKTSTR

SMILES	IC50 [1] [nM]	IC50 [2] [nM]
CNC(=O)c1ccc(NC(=O)C(Cc2ccn(C)n2)n2cc(OC)c(-c3cc(F)ccc3C#N)cc2=O)cn1 (racemic) [Example 49, 5-({2-[4-(2-Cyano-5-fluorophenyl)-5-methoxy-2-oxopyridin-1(2H)-yl]-3-(1-methyl-1H-pyrazol-3-yl)propanoyl}amino)-N-methylpyridine-2-carboxamide (racemate)]	160	130
CNC(=O)c1ccc(NC(=O)C(Cc2ccn(C)n2)n2cc(C3CC3)c(-c3cc(Cl)ccc3C#N)cc2=O)cn1 (racemic) [Example 51, 5-({2-[4-(5-Chloro-2-cyanophenyl)-5-cyclopropyl-2-oxopyridin-1(2H)-yl]-3-(1-methyl-1H-pyrazol-3-yl)propanoyl}amino)-N-methylpyridine-2-carboxamide (racemate)]	200	80
CCC(C(=O)Nc1ccc(C(N)=O)nc1)n1cc(OC)c(-c2cc(Cl)ccc2C#N)cc1=O (centres unmarked) [Example 1]	20	22
CCC(C(=O)Nc1ccc(C(=O)NC)nc1)n1cc(OC)c(-c2cc(Cl)ccc2C#N)cc1=O (centres unmarked) [Example 2]	20	16
COCCC(C(=O)Nc1ccc(C(N)=O)nc1)n1cc(Cl)c(-c2cc(Cl)ccc2C#N)cc1=O (centres unmarked) [Example 3]	29	100
N#Cc1ccc(Cl)cc1-c1cc(=O)n(C(C[C@@H]2CCCCO2)C(=O)Nc2ccc(C(N)=O)nc2)cc1Cl (some centres unmarked) [Example 4]	16	140
CNC(=O)c1ccc(NC(=O)C(C[C@@H]2CCCCO2)n2cc(Cl)c(-c3cc(Cl)ccc3C#N)cc2=O)cn1 (some centres unmarked) [Example 5]	12	120
N#Cc1ccc(Cl)cc1-c1cc(=O)n(C(Cc2ccccn2)C(=O)Nc2ccc(C(N)=O)nc2)cc1OC(F)F (centres unmarked) [Example 7]	160	490
COc1cn(C(Cc2cccnc2)C(=O)Nc2ccc(C(N)=O)nc2)c(=O)cc1-c1cc(Cl)ccc1C#N (centres unmarked) [Example 8]	11	6
N#Cc1ccc(Cl)cc1-c1cc(=O)n(C(Cc2cocn2)C(=O)Nc2ccc(C(N)=O)nc2)cc1Cl (centres unmarked) [Example 10]	210	470
COc1cn(C(Cc2cocn2)C(=O)Nc2ccc(C(N)=O)nc2)c(=O)cc1-c1cc(Cl)ccc1C#N (centres unmarked) [Example 11]	48	52
N#Cc1ccc(Cl)cc1-c1cc(=O)n(C(Cc2cnco2)C(=O)Nc2ccc(C(N)=O)nc2)cc1OC(F)F (centres unmarked) [Example 12]	210	640
COc1cn(C(Cc2ccccn2)C(=O)Nc2ccc(C(N)=O)nc2)c(=O)cc1-c1cc(Cl)ccc1F (centres unmarked) [Example 13]	220	250
COc1cn(C(Cc2cc(C)no2)C(=O)Nc2ccc(C(N)=O)nc2)c(=O)cc1-c1cc(Cl)ccc1F (centres unmarked) [Example 14]	390	160
CNC(=O)c1ccc(NC(=O)C(CCOC)n2cc(Cl)c(-c3cc(Cl)ccc3C#N)cc2=O)cn1 (centres unmarked) [Example 15]	23	53
N#Cc1ccc(Cl)cc1-c1cc(=O)n(C(Cc2cnco2)C(=O)Nc2ccc(C(N)=O)nc2)cc1Cl (centres unmarked) [Example 16]	32	89
